Entries after “also recorded” stand apart in the source; their conditions may differ.
What was measured:
[1] = target: T1, Pin1 (Homo sapiens, UniProt Q13526); assay: Fluorescence polarization (FP) assay, binding to Pin1; settings: for Ki: 1 h incubation with Pin1, read-out: Ki (binding affinity to Pin1, Kenakin Ki from FP EC50)
Protocol: FIG. 3 is a fluorescence polarization readout following 1 h incubation of the indicated compounds with Pin1. Data points are plotted as the average of n=3 independent samples+SEM. Binding affinity to Pin1 was determined using a fluorescence polarization assay. Ki values obtained from the FP assay results were derived from the Kenakin Ki equation: Kenakin Ki=(Lb)(EC50)(Kd)/(Lo)(Ro)+Lb(Ro−Lo+Lb−Kd), where Kd [M]: Kd of the probe, EC50 [M]: obtained from FP assay, total tracer Lo [M]: probe concentration in FP, bound tracer Lb [M]: 85% of probe concentration binds to target protein, total receptor Ro [M]: Pin1 concentration in the FP assay, as described (Auld et al. Receptor binding assays for HTS and drug discovery. in Assay Guidance Manual eds. Sittampalam, G.S., et al. Eli Lilly & Company and the National Center for Advancing Translational Sciences, 2004).

[2] = target: T1, Pin1; assay: Molt4 cells competition with Pin1-3 desthiobiotin probe, streptavidin pull-down and immunoblot (Pin1 engagement); format: cell-based; set-up: endogenous in cells; host or cells: Molt4; settings: Molt4 cells treated 5 h, streptavidin pull-down, immunoblot
Protocol: FIG. 4 is an immunoblot displaying the result of Molt4 cells treated in a competition format with the indicated concentrations of Pin1-3, Pin1-3 P1, and Pin1-3 P2 for 5 h, followed by cell lysis, incubation with TM-03-163 (Pin1-3 desthiobiotin), streptavidin pull-down, and immunoblot analysis. […] Molt4 cells were treated in a competition format with Pin1-3, Pin1-3 P1, and Pin1-3 P2 for 5 h, followed by cell lysis, incubation with […] (Pin1-3 desthiobiotin), followed by streptavidin pulldown and immunoblot analysis.

T1 sequence (Q13526 whole entry): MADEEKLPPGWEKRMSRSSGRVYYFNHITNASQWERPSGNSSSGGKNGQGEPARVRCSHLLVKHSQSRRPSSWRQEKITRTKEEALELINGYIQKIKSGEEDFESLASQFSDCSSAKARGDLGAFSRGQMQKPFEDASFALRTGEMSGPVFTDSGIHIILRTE

| Compound | Ki [1] [nM] | Engagement of Pin1 in Molt4 cells [2] | Ki (binding affinity to Pin1, Kenakin Ki from FP EC50) ([1]; 1 h incubation with Pin1) |
| --- | --- | --- | --- |
| CC(C)(C)CN(C(=O)CCl)C1CCS(=O)(=O)C1 (racemic) [Pin1-3, reference compound] | ~286 |  |  |
| CC(C)(C)CN(C(=O)CCl)[C@@H]1CCS(=O)(=O)C1 (single isomer, unassigned) [Pin1-3 P1] | ~70 | engages Pin1 more potently than Pin1-3 |  |
| CC(C)(C)CN(C(=O)CCl)[C@H]1CCS(=O)(=O)C1 [Pin1-3 P2, (S)-2-chloro-N-(1,1-dioxidotetrahydrothiophen-3-yl)-N-neopentylacetamide] |  | did not display engagement; also recorded: no engagement | unable to be determined |

— patent US20240197678A1, “INHIBITORS OF THE PEPTIDYL-PROLYL CIS/TRANS ISOMERASE (PIN1) AND USES THEREOF” (DANA-FARBER CANCER INSTITUTE, INC., priority 2021, published 2024)
